Source: ChEMBL document CHEMBL1156041, “Synthesis and antifungal activity of benzo[d]oxazole-4,7-diones” (2009)
≈ marks a conversion by molar mass, not a printed value.

Columns and labels:
Format in all cases: functional
[1] = tested on: Pichia kudriavzevii; test: Antifungal activity against Candida krusei Berkout KCCM 11655 after 1 day by twofold broth dilution method; conditions: KCCM 11655, 24 h
[2] = tested on: Cryptococcus neoformans; test: Antifungal activity against Cryptococcus neoformans KCCM 50564 after 1 day by twofold broth dilution method; conditions: KCCM 50564, 24 h
[3] = tested on: Candida albicans; test: Antifungal activity against Candida albicans Berkout KCCM 50235 after 1 day by twofold broth dilution method; conditions: KCCM 50235, 24 h
[4] = tested on: Aspergillus niger; test: Antifungal activity against Aspergillus niger KCTC 1231 after 2 days by twofold broth dilution method; conditions: KCTC 1231, 48 h
[5] = tested on: Aspergillus flavus; test: Antifungal activity against Aspergillus flavus KCCM 11899 by twofold broth dilution method
[6] = tested on: Candida tropicalis; test: Antifungal activity against Candida tropicalis Berkout KCCM 50662 after 1 day by twofold broth dilution method; conditions: KCCM 50662, 24 h

Structure (SMILES) | MIC [1] | MIC [2] | MIC [3] | MIC [4] | MIC [5] | MIC [6]
CCc1nc2c(o1)C(=O)C(Nc1ccc(Cl)cc1)=C(Br)C2=O | 6.3 µg/mL (≈ 16.5 µM) | 6.3 µg/mL (≈ 16.5 µM) | 6.3 µg/mL (≈ 16.5 µM) | 3.2 µg/mL (≈ 8.39 µM) | 3.2 µg/mL (≈ 8.39 µM) | 25 µg/mL (≈ 65.5 µM)
CCc1nc2c(o1)C(=O)C(Nc1ccc(O)cc1)=C(Br)C2=O | 25 µg/mL (≈ 68.8 µM) | 12.5 µg/mL (≈ 34.4 µM) | 50 µg/mL (≈ 138 µM) | 50 µg/mL (≈ 138 µM) | 25 µg/mL (≈ 68.8 µM) | 12.5 µg/mL (≈ 34.4 µM)
CCc1nc2c(o1)C(=O)C(Nc1cccc(C#N)c1)=C(Br)C2=O | 50 µg/mL (≈ 134 µM) | 12.5 µg/mL (≈ 33.6 µM) | 12.5 µg/mL (≈ 33.6 µM) | 12.5 µg/mL (≈ 33.6 µM) | 6.3 µg/mL (≈ 16.9 µM) | 6.3 µg/mL (≈ 16.9 µM)
CCc1nc2c(o1)C(=O)C(Nc1ccc(F)cc1)=C(Br)C2=O | 6.3 µg/mL (≈ 17.3 µM) | 6.3 µg/mL (≈ 17.3 µM) | 12.5 µg/mL (≈ 34.2 µM) | 6.3 µg/mL (≈ 17.3 µM) | 3.2 µg/mL (≈ 8.76 µM) | 6.3 µg/mL (≈ 17.3 µM)
CCc1nc2c(o1)C(=O)C(Nc1ccc([N+](=O)[O-])cc1)=C(Br)C2=O | 50 µg/mL (≈ 127 µM) | 25 µg/mL (≈ 63.7 µM) | 50 µg/mL (≈ 127 µM) | 25 µg/mL (≈ 63.7 µM) | 25 µg/mL (≈ 63.7 µM) | 50 µg/mL (≈ 127 µM)
CCc1nc2c(o1)C(=O)C(Sc1ccccc1)=C(Sc1ccccc1)C2=O | 12.5 µg/mL (≈ 31.8 µM) | 12.5 µg/mL (≈ 31.8 µM) | 12.5 µg/mL (≈ 31.8 µM) | 12.5 µg/mL (≈ 31.8 µM) | 12.5 µg/mL (≈ 31.8 µM) | 12.5 µg/mL (≈ 31.8 µM)
CCc1nc2c(N)cccc2o1 | 100 µg/mL (≈ 617 µM) | 100 µg/mL (≈ 617 µM) | > 100 µg/mL | > 100 µg/mL | > 100 µg/mL | 50 µg/mL (≈ 308 µM)
CCc1nc2c(o1)C(=O)C(Sc1ccc(CC)c(CC)c1)=C(Sc1ccc(CC)c(CC)c1)C2=O | 50 µg/mL (≈ 98.9 µM) | 25 µg/mL (≈ 49.4 µM) | 12.5 µg/mL (≈ 24.7 µM) | 25 µg/mL (≈ 49.4 µM) | 25 µg/mL (≈ 49.4 µM) | 25 µg/mL (≈ 49.4 µM)
CCc1nc2c(o1)C(=O)C(Nc1ccc(C#N)cc1)=C(Br)C2=O | 50 µg/mL (≈ 134 µM) | 25 µg/mL (≈ 67.2 µM) | 50 µg/mL (≈ 134 µM) | 25 µg/mL (≈ 67.2 µM) | 25 µg/mL (≈ 67.2 µM) | 50 µg/mL (≈ 134 µM)
CCc1nc2c(o1)C(=O)C(Nc1cccc(O)c1)=C(Br)C2=O | 25 µg/mL (≈ 68.8 µM) | 25 µg/mL (≈ 68.8 µM) | 50 µg/mL (≈ 138 µM) | 50 µg/mL (≈ 138 µM) | 25 µg/mL (≈ 68.8 µM) | 6.3 µg/mL (≈ 17.3 µM)
CCc1nc2c(o1)C(=O)C(Nc1cccc(Cl)c1)=C(Br)C2=O | 6.3 µg/mL (≈ 16.5 µM) | 3.2 µg/mL (≈ 8.39 µM) | 6.3 µg/mL (≈ 16.5 µM) | 3.2 µg/mL (≈ 8.39 µM) | 3.2 µg/mL (≈ 8.39 µM) | 6.3 µg/mL (≈ 16.5 µM)
CCc1nc2c(o1)C(=O)C(Sc1ccc(Br)c(Br)c1)=C(Sc1ccc(Br)c(Br)c1)C2=O | 12.5 µg/mL (≈ 17.6 µM) | 12.5 µg/mL (≈ 17.6 µM) | 50 µg/mL (≈ 70.5 µM) | 25 µg/mL (≈ 35.3 µM) | 25 µg/mL (≈ 35.3 µM) | 50 µg/mL (≈ 70.5 µM)
CCc1nc2c(o1)C(=O)C(Nc1cccc(F)c1)=C(Br)C2=O | 6.3 µg/mL (≈ 17.3 µM) | 6.3 µg/mL (≈ 17.3 µM) | 12.5 µg/mL (≈ 34.2 µM) | 6.3 µg/mL (≈ 17.3 µM) | 6.3 µg/mL (≈ 17.3 µM) | 3.2 µg/mL (≈ 8.76 µM)

These reach a lower MIC [1]. Values come first.

MIC [1] | MIC [2] | MIC [3] | MIC [4] | MIC [5] | MIC [6] | Structure (SMILES)
3.2 µg/mL (≈ 7.12 µM) | 12.5 µg/mL (≈ 27.8 µM) | 25 µg/mL (≈ 55.6 µM) | 12.5 µg/mL (≈ 27.8 µM) | 6.3 µg/mL (≈ 14 µM) | 12.5 µg/mL (≈ 27.8 µM) | CCc1nc2c(o1)C(=O)C(Sc1ccc(C)c(C)c1)=C(Sc1ccc(C)c(C)c1)C2=O
3.2 µg/mL (≈ 6.76 µM) | 3.2 µg/mL (≈ 6.76 µM) | 6.3 µg/mL (≈ 13.3 µM) | 6.3 µg/mL (≈ 13.3 µM) | 3.2 µg/mL (≈ 6.76 µM) | 6.3 µg/mL (≈ 13.3 µM) | CCc1nc2c(o1)C(=O)C(Nc1ccc(I)cc1)=C(Br)C2=O
3.2 µg/mL (≈ 9.22 µM) | 1.6 µg/mL (≈ 4.61 µM) | 1.6 µg/mL (≈ 4.61 µM) | 1.6 µg/mL (≈ 4.61 µM) | 3.2 µg/mL (≈ 9.22 µM) | 3.2 µg/mL (≈ 9.22 µM) | CCc1nc2c(o1)C(=O)C(Nc1ccccc1)=C(Br)C2=O
3.2 µg/mL (≈ 7.51 µM) | 1.6 µg/mL (≈ 3.76 µM) | 0.8 µg/mL (≈ 1.88 µM) | 0.8 µg/mL (≈ 1.88 µM) | 1.6 µg/mL (≈ 3.76 µM) | 3.2 µg/mL (≈ 7.51 µM) | CCc1nc2c(o1)C(=O)C(Nc1ccc(Br)cc1)=C(Br)C2=O
3.2 µg/mL (≈ 24.8 µM) | 3.2 µg/mL (≈ 24.8 µM) | 3.2 µg/mL (≈ 24.8 µM) | 1.6 µg/mL (≈ 12.4 µM) | 1.6 µg/mL (≈ 12.4 µM) | 3.2 µg/mL (≈ 24.8 µM) | Nc1nc(=O)[nH]cc1F [FLUCYTOSINE]
1.6 µg/mL (≈ 4.24 µM) | 3.2 µg/mL (≈ 8.48 µM) | 6.35 µg/mL (≈ 16.8 µM) | 3.2 µg/mL (≈ 8.48 µM) | 6.3 µg/mL (≈ 16.7 µM) | 12.5 µg/mL (≈ 33.1 µM) | CCc1nc2c(o1)C(=O)C(Nc1ccc(OC)cc1)=C(Br)C2=O
